The data set in a line: Human HepG2 cell viability assay in 384 well format. The format is toxicity, cell-based. Details: dose 125 nL, time 70.5 hour; concentration not given beside the values. Conditions: HepG2 cells, read-out: Inhibition.
Consider `Cc1ncc(CNCCO)c2cc(C(=O)c3ccc(Br)cc3)oc12`, for which the cytotoxicity at 70.5 h is -18%.
As to `Cc1nc(C2CCCN2CCC(=O)N2CCc3ccccc32)no1` (centres undefined), the cytotoxicity at 70.5 h is 4.14%.
For the compound `Cn1nc(C2CCCN(Cc3ccc(F)c(F)c3)C2)c2nccnc21` (centres undefined), the cytotoxicity at 70.5 h was found to be 27.1%.
As for `CC(=O)N1CCC(NC(C)c2cnn(-c3ccc(F)cc3F)c2C)CC1` (centres undefined), the cytotoxicity at 70.5 h was -5.65%.
Turning to `CCn1c(=O)n(Cc2nc(C3CC3)no2)c2ccccc21`, the cytotoxicity at 70.5 h was 23.4%.
For `CCCS(=O)(=O)N1C[C@@H](Oc2ncccc2F)[C@H]2OCCC[C@H]21` the value was -10.6%; for `O=C(CCc1ccco1)N1CCCN(Cc2cscn2)CC1`, 11.4%; for `CCOCC1c2c(cnn2CC2CC2)CCN1Cc1nccs1` (centres undefined), -9.55%.
As for `Cc1ccc(-c2cc(C(=O)NCCN3CCOCC3)n[nH]2)s1`, the cytotoxicity at 70.5 h was -3.46%.
Turning to `Cc1cncc(C2CCCN(Cc3ccncc3)C2)n1` (centres undefined), the cytotoxicity at 70.5 h was 13.6%.
Take `O=C(NC1CC1)N1CCc2ncnc(-c3ccncc3)c2CC1`: the cytotoxicity at 70.5 h was 18.5%.
As to `CC(=O)N1CCN(Cc2ccc3c(c2)OCCO3)CC(O)C1` (centres undefined), the cytotoxicity at 70.5 h is -10.7%.
For `CN1CCC(N(CCc2ccccc2)C(=O)c2ccc(C#N)nc2)CC1` the value was -3.27%.
Turning to `CCN1CCN(CCC(=O)NC2CC(c3cccc(Cl)c3)C2)CC1` (centres undefined), the cytotoxicity at 70.5 h came out at 3.15%.
Take `N#Cc1cccc(CN2Cc3nccn3CC(COCC3CC3)C2)c1` (centres undefined): the cytotoxicity at 70.5 h was found to be 8.65%.
On to `CCCn1[nH]cc/c1=N\C(=O)CN1CCCC1c1cccn1C` (centres undefined), for which the cytotoxicity at 70.5 h was -2.18%.
Regarding `CN(C)C(=O)Cc1ccc(NCc2nccn2C)cc1`, the cytotoxicity at 70.5 h is -2.12%.
To `CCc1nc(C)c(CN2CCOC(Cc3ccccc3Cl)C2)[nH]1` (centres undefined) belongs -6.82%.
In the case of `COCC1CN(c2ccc(Cl)cc2C#N)CCO1` (centres undefined), the cytotoxicity at 70.5 h was -7.05%.
On to `O=C(c1ccsc1)N1C[C@@H]2CCN(c3cccnc3)C[C@@H]2C1`, for which the cytotoxicity at 70.5 h was -6.89%.
`CN(C)[C@@H]1C[C@@H](CO)N(C(=O)Nc2ccc(SC(F)(F)F)cc2)C1`: the cytotoxicity at 70.5 h came to 4.27%.
`CSCCCN1CCC(c2nnc(Cn3ccnc3)n2C2CC2)CC1`: the cytotoxicity at 70.5 h was -0.0518%.
With `CCC(=O)Nc1ccc(N2CCC(OC)CC2)c(C(F)(F)F)c1`, the cytotoxicity at 70.5 h is -4.77%.
As to `CCOc1cc(C(=O)N2CCOCC2)cc2occc12`, the cytotoxicity at 70.5 h is 22.3%.
With `OC1COCCN(Cc2cccc(N3CCOCC3)c2)C1` (centres undefined), the cytotoxicity at 70.5 h was -5.01%.
In the case of `CC(C)NC(=O)c1cc2c([nH]c1=O)CC(c1cccs1)CC2=O` (centres undefined), the cytotoxicity at 70.5 h turned out to be 6.88%.
In the case of `CCn1cc(CNC2CCN(c3cccc(Cl)c3)C2)cn1` (centres undefined), the cytotoxicity at 70.5 h was -3.2%.
`Cc1c(C(=O)NC(C)C(C)C)nnn1-c1cccc2c1CCN(C)C2` (centres undefined): the cytotoxicity at 70.5 h worked out at 5.93%.
For the compound `COc1cc(CO)c(OC)c2c1OCO2`, the cytotoxicity at 70.5 h was -8.39%.
With `CCn1nc(C)c(CCNC(=O)C2CCCN(C(=O)N(C)C)C2)c1C` (centres undefined), the cytotoxicity at 70.5 h is -11.9%.
In the case of `CC(COc1ccc(F)cc1F)NC(=O)NCCN1CCOCC1` (centres undefined), the cytotoxicity at 70.5 h was -16%.
Consider `CCCNS(=O)(=O)c1ccc2[nH]c(=O)cc(C)c2c1`, for which the cytotoxicity at 70.5 h was -12.9%.
In the case of `COC(=O)c1ccc(C2SC(C)=Nc3c2c(=O)[nH]n3C2CCCC2)cc1` (centres undefined), the cytotoxicity at 70.5 h was -14.5%.
Take `N#Cc1ccc(OCCN2CCn3c(nnc3C3CC3)C2)cc1`: the cytotoxicity at 70.5 h amounted to 6.25%.
For the compound `Cc1nc(C)n(CC2CN(c3ccc(C#N)cn3)CCO2)n1` (centres undefined), the cytotoxicity at 70.5 h is -4.17%.
Consider `O=C(Cc1ccc(F)cc1)NCCNS(=O)(=O)C1CCCC1`, for which the cytotoxicity at 70.5 h is -8.77%.
On to `CC(C)c1ccc(S(=O)(=O)Cc2nc(N)nc(N(C)C)n2)cc1`, for which the cytotoxicity at 70.5 h is -1.91%.
Turning to `O=C(CN1C=Nc2ccccc2S1(=O)=O)NCCCc1ccccc1`, the cytotoxicity at 70.5 h was -12.6%.
Turning to `O=C(CSc1ccc2c(c1)OCCO2)NS(=O)(=O)c1cccs1`, the cytotoxicity at 70.5 h is -6.92%.
To `Cc1ccc(C(C)NCCc2nccn2Cc2ccccc2)o1` (centres undefined) belongs -10.1%; to `CCc1nc(N2CCN(CCOC)CC2)c2cnn(C)c2n1`, -11.9%; to `Cc1ccccc1OCC(=O)N1CCN(C2CCOC2=O)CC1` (centres undefined), 0.726%.
With `CCN(C)S(=O)(=O)NCC1CCN(Cc2ccccc2F)C1` (centres undefined), the cytotoxicity at 70.5 h was -10.5%.
In the case of `O=C([C@H]1C[C@H]2OCC[C@H]2N(C(=O)c2ccccn2)C1)N1CCCCO1`, the cytotoxicity at 70.5 h is -6.44%.
Consider `CS(=O)(=O)N1CC2(CCN(CC3CC3)C2)Cc2ccccc21` (centres undefined), for which the cytotoxicity at 70.5 h is -6.8%.
For `Cc1cc(C)n(Cc2cccc(C(=O)NCCSCC(C)(C)O)c2)n1` the value was -3.16%.
As to `O=C(Nc1ccc(-c2csnn2)cc1)N1CC[C@H](O)C1`, the cytotoxicity at 70.5 h was -13.4%.
Consider `CN1CC2(CCNCC2)CC1C(=O)NCCCNc1cccnc1` (centres undefined), for which the cytotoxicity at 70.5 h turned out to be 17.1%.
For the compound `N#Cc1ccc(CN2CCCCC2Cn2cncn2)cc1` (centres undefined), the cytotoxicity at 70.5 h amounted to 11.7%.
`O=C1NCC2(CCCN(C(=O)Nc3ccc4occc4c3)CC2)O1` (centres undefined): the cytotoxicity at 70.5 h was -1.24%.
For `N#Cc1ccc(OCC(O)CN2CCC(c3ccn[nH]3)CC2)cc1` (centres undefined) the value was -14.4%.
Take `CC(C)c1nc(CN2CCOC(Cn3cncn3)C2)no1` (centres undefined): the cytotoxicity at 70.5 h is -8.23%.
Regarding `Cc1ccc(-c2noc([C@@H]3Cc4nc[nH]c4CN3)n2)cc1`, the cytotoxicity at 70.5 h is -11.9%.
In the case of `COCCNC(=O)NCCn1nc(C(F)(F)F)n(C)c1=O`, the cytotoxicity at 70.5 h was -4.7%.
For `COc1ncccc1CNC(=O)NC(C)Cn1cccn1` (centres undefined), the cytotoxicity at 70.5 h is -14.1%.
Take `CCNC(=O)NC(=O)CNC1(c2noc(C)n2)CCCC1`: the cytotoxicity at 70.5 h stood at 16.6%.
For `O=C(NCc1cccc(F)c1)Nc1ccn(CCN2CCOCC2)n1` the value was -4.92%; for `CC(C)(C)NC(=O)CN1CCCN(Cc2ccc(C#N)cc2)CC1`, -6.11%.
Consider `CCc1cnc(CN2C(=O)CC3(CCSC3)C2=O)o1` (centres undefined), for which the cytotoxicity at 70.5 h was 11.4%.
For `CCN(C(C)=O)C1CCN(c2nccc(C3CCCC3)n2)C1` (centres undefined), the cytotoxicity at 70.5 h is -30.2%.
For `CCOCC1CN(CC2CCC2)Cc2nnn(CC3CC3)c21` (centres undefined) the value was -0.482%; for `CC(=O)N1N=C(c2ccccc2)OC1C(=O)N(C)Cc1ccccc1` (centres undefined), -4.44%.
For the compound `Cc1cc(NC(=O)CN2CCC(N(C)Cc3ncc(C)o3)C2)n(C)n1` (centres undefined), the cytotoxicity at 70.5 h turned out to be 16.2%.
For `CC(C)(C)c1cc(NC(=O)CN(Cc2ccco2)Cc2cccs2)on1` the value was 4.01%; for `CN1CC2(CCN(C(=O)c3cc(-n4cccn4)ccc3Cl)CC2)OC1=O`, 7.23%; for `Cc1ccc(S(=O)(=O)NC(=O)COc2cccc(C(N)=O)c2)s1`, -10.7%.
Take `CN(C(=O)c1cccc(NCc2cccs2)c1)C(C1CC1)C1CC1`: the cytotoxicity at 70.5 h was -11.2%.
For the compound `O=C(c1ccco1)N1CCCC(c2cc(C(F)(F)F)n3ncnc3n2)C1` (centres undefined), the cytotoxicity at 70.5 h is 28.3%.
As for `O=C(Nc1cccc(OCC(F)F)n1)c1ccncc1F`, the cytotoxicity at 70.5 h is -6.41%.
For `CCc1csc(C2CCCN(C(=O)c3cc(C4CC4)[nH]n3)C2)n1` (centres undefined) the value was -7.48%; for `Cc1cccc(NC(=O)[C@@H]2CCCN2Cc2cnc3ccccn23)n1`, 1.07%.
On to `Cc1csc(C(C)(C)NCC(=O)N(C)Cc2ccc(C)o2)n1`, for which the cytotoxicity at 70.5 h was 4.78%.
Consider `O=C(CCc1ccccc1)NCC(O)c1c(F)cccc1F` (centres undefined), for which the cytotoxicity at 70.5 h was -3.12%.
In the case of `c1cnnc(N2CCCC2CNCc2nc3ccccc3o2)c1` (centres undefined), the cytotoxicity at 70.5 h is -9.74%.
On to `c1ccc2c(N3CCOC(Cn4cccn4)C3)ncnc2c1` (centres undefined), for which the cytotoxicity at 70.5 h is -4.3%.
For the compound `OCCN1CCN(Cc2cnc3c(-c4ccccc4)cnn3c2)CC1`, the cytotoxicity at 70.5 h came out at 6.6%.
Consider `COc1c(C)cnc(CSc2nnc(NC3CC3)s2)c1C`, for which the cytotoxicity at 70.5 h was -1.65%.
In the case of `COc1cc(OC)cc(C2SCC(=O)Nc3ccsc32)c1` (centres undefined), the cytotoxicity at 70.5 h is -4.19%.
To `N#Cc1cccnc1N1CCC(OCCc2ccccc2)CC1` belongs -9.51%.
`CCN1CCO[C@@H]2CN(C(=O)c3ccc4[nH]ccc4c3)CC[C@@H]2C1`: the cytotoxicity at 70.5 h was -7.4%.
Consider `O=c1ccn([C@H]2CCN(Cc3ncc[nH]3)CC[C@@H]2O)c(=O)[nH]1`, for which the cytotoxicity at 70.5 h was -4.85%.
With `CCN(CC)C(=O)CN1CCC2(C=Cc3cc(Cl)c(C)cc3O2)CC1`, the cytotoxicity at 70.5 h turned out to be 7.43%.
To `O=S(=O)(C1CC1)N1C[C@@H]2COC[C@]2(COc2ccccn2)C1` belongs -18.1%; to `CC1CCN(C(=O)c2cc(NC(=O)c3ccccc3)n(C)n2)CC1`, -14.1%.
On to `O=C(c1ccccc1)N1CCC2(CC1)CNc1c(F)cccc12`, for which the cytotoxicity at 70.5 h was -7.65%.
For `Cc1ncc(C(=O)NC2CCc3nccn3C2)c(C(C)C)n1` (centres undefined), the cytotoxicity at 70.5 h is -3.83%.
To `CC1CCCN(CC(=O)N2CCC(c3ncc4c(n3)CCNC4)CC2)C1` (centres undefined) belongs 1.79%.
For the compound `CN1CCCC(CCC(=O)NCCc2nnc(N)s2)C1` (centres undefined), the cytotoxicity at 70.5 h came to 9.25%.
Regarding `CC(c1cc(F)ccc1F)N(C)Cc1nc2c(cnn2C)c(=O)[nH]1` (centres undefined), the cytotoxicity at 70.5 h turned out to be 10.4%.
As for `COc1coc(CN2CCCC3(CCC(=O)N(C4CC4)C3)C2)cc1=O` (centres undefined), the cytotoxicity at 70.5 h is -12.4%.
As for `CC(C)CNC1(Cc2cc(-c3ccccc3)on2)COC1`, the cytotoxicity at 70.5 h was -6.11%.
To `COCCN(C)C(C(=O)O)c1cc(Cl)ccc1OC` (centres undefined) belongs 7.55%.
Take `Cc1nn(C)cc1-c1ccnc(N(C)Cc2ccoc2)n1`: the cytotoxicity at 70.5 h is -3.89%.
Consider `Nc1ccnc(N2CCCC(CCc3ccccc3)(C(=O)O)C2)n1` (centres undefined), for which the cytotoxicity at 70.5 h was -3.28%.
As for `CS(=O)(=O)N1CCCC12CCCN(C(=O)c1ccncc1)C2` (centres undefined), the cytotoxicity at 70.5 h is -7.69%.
As for `c1cnc(NCc2noc3c2CN(C2CCOC2)CC3)nc1` (centres undefined), the cytotoxicity at 70.5 h was -6.78%.
With `COc1ccc(C(C)N2CCN(Cc3nccn3C)CC2)cc1Cl` (centres undefined), the cytotoxicity at 70.5 h was -6.8%.
As to `O=C([C@H]1C[C@H]2OCC[C@H]2N(C(=O)c2cnccn2)C1)N1CCCCO1`, the cytotoxicity at 70.5 h is -8.15%.
Take `CCC(=O)N1CCC2(CC1)CC(Oc1ccccc1)CO2` (centres undefined): the cytotoxicity at 70.5 h was -4.49%.
